Laboratory results taken from PMC11792361 (BMC Complementary Medicine and Therapies, 2025).

system: prostate adenocarcinoma PC-3; test: MTT cytotoxicity assay, 72 h; assay type: cell-based, human; settings: Homo sapiens, 72 h, read-out: IC50 PC-3

Compound	IC50 [µM]
O=C1C[C@@H](c2ccc(O)c(O)c2)Oc2cc(O)cc(O)c21 [eriodictyol]	284 ± 7.54
O=c1c(O)c(-c2ccc(O)c(O)c2)oc2cc(O)ccc12 [fisetin]	160 ± 14.4
O=C1c2c(O)cc(O)cc2OC(c2ccc(O)c(O)c2)C1O (centres unmarked) [taxifolin]	391 ± 16.1

same assay, conditions: from average IC50 values

Compound	Selectivity index IC50 for HaCaT/IC50 for PC-3	Selectivity index IC50 for MRC-5/IC50 for PC-3
O=C1C[C@@H](c2ccc(O)c(O)c2)Oc2cc(O)cc(O)c21 [eriodictyol]	0.61	0.55
O=c1c(O)c(-c2ccc(O)c(O)c2)oc2cc(O)ccc12 [fisetin]	0.50	> 2.5
O=C1c2c(O)cc(O)cc2OC(c2ccc(O)c(O)c2)C1O (centres unmarked) [taxifolin]	1.00	> 1.02

same assay, conditions: read-out: IC50 PC-3; compounds; 72 h; average ± SD; ** two experiments

Compound	IC50 [µM]
N.N.[Cl][Pt][Cl] [cisplatin, reference compound]	5.75 ± 0.16

system: breast cancer cells; test: not given; settings: MCF-7; cited from earlier work

Compound	selectivity index (SI) against breast cancer cells
O=C1C[C@@H](c2ccc(O)c(O)c2)Oc2cc(O)cc(O)c21 [eriodictyol]	> 2.66

system: triple-negative breast adenocarcinoma MDA-MB-231; test: MTT cytotoxicity assay, 72 h; assay type: cell-based, human; settings: Homo sapiens, MDA-MB-231, 72 h, read-out: IC50 MDA-MB-231

Compound	IC50 [µM]
O=C1C[C@@H](c2ccc(O)c(O)c2)Oc2cc(O)cc(O)c21 [eriodictyol]	51.3 ± 6.4
O=c1c(O)c(-c2ccc(O)c(O)c2)oc2cc(O)ccc12 [fisetin]	45.1 ± 7.6
O=C1c2c(O)cc(O)cc2OC(c2ccc(O)c(O)c2)C1O (centres unmarked) [taxifolin]	174 ± 20.4

same assay, conditions: from average IC50 values

Compound	Selectivity index IC50 for HaCaT/IC50 for MDA-MB-231	Selectivity index IC50 for MRC-5/IC50 for MDA-MB-231
O=C1C[C@@H](c2ccc(O)c(O)c2)Oc2cc(O)cc(O)c21 [eriodictyol]	3.35	3.02
O=c1c(O)c(-c2ccc(O)c(O)c2)oc2cc(O)ccc12 [fisetin]	1.76	> 8.88
O=C1c2c(O)cc(O)cc2OC(c2ccc(O)c(O)c2)C1O (centres unmarked) [taxifolin]	2.25	> 2.30

system: acute promyelocytic leukemia HL-60 cells; test: MTT cytotoxicity assay, 72 h; assay type: cell-based, human; settings: Homo sapiens, HL-60, 72 h, read-out: IC50 HL-60

Compound	IC50 [µM]
O=C1C[C@@H](c2ccc(O)c(O)c2)Oc2cc(O)cc(O)c21 [eriodictyol]	117 ± 15.1
O=c1c(O)c(-c2ccc(O)c(O)c2)oc2cc(O)ccc12 [fisetin]	42.8 ± 3.07
O=C1c2c(O)cc(O)cc2OC(c2ccc(O)c(O)c2)C1O (centres unmarked) [taxifolin]	187 ± 14.5

same assay, conditions: from average IC50 values

Compound	Selectivity index IC50 for HaCaT/IC50 for HL-60	Selectivity index IC50 for MRC-5/IC50 for HL-60
O=C1C[C@@H](c2ccc(O)c(O)c2)Oc2cc(O)cc(O)c21 [eriodictyol]	1.47	1.32
O=c1c(O)c(-c2ccc(O)c(O)c2)oc2cc(O)ccc12 [fisetin]	1.86	> 9.35
O=C1c2c(O)cc(O)cc2OC(c2ccc(O)c(O)c2)C1O (centres unmarked) [taxifolin]	2.09	> 2.14

system: malignant melanoma A375; test: MTT cytotoxicity assay, 72 h; assay type: cell-based, human; settings: Homo sapiens, A-375, 72 h, read-out: IC50 A375

Compound	IC50 [µM]
O=C1C[C@@H](c2ccc(O)c(O)c2)Oc2cc(O)cc(O)c21 [eriodictyol]	138 ± 6.65
O=c1c(O)c(-c2ccc(O)c(O)c2)oc2cc(O)ccc12 [fisetin]	161 ± 5.91
O=C1c2c(O)cc(O)cc2OC(c2ccc(O)c(O)c2)C1O (centres unmarked) [taxifolin]	191 ± 5.54

same assay, conditions: from average IC50 values

Compound	Selectivity index IC50 for HaCaT/IC50 for A375	Selectivity index IC50 for MRC-5/IC50 for A375
O=C1C[C@@H](c2ccc(O)c(O)c2)Oc2cc(O)cc(O)c21 [eriodictyol]	1.25	1.12
O=c1c(O)c(-c2ccc(O)c(O)c2)oc2cc(O)ccc12 [fisetin]	0.49	> 2.48
O=C1c2c(O)cc(O)cc2OC(c2ccc(O)c(O)c2)C1O (centres unmarked) [taxifolin]	2.05	> 2.10

same assay, conditions: read-out: IC50 A375; compounds; 72 h; average ± SD; * single experiment

Compound	IC50 [µM]
N.N.[Cl][Pt][Cl] [cisplatin, reference compound]	2.3 ± 0.48

system: keratinocytes HaCaT; test: MTT cytotoxicity assay, 72 h, normal cells; assay type: cell-based, human; settings: Homo sapiens, HaCaT, read-out: IC50 HaCaT

Compound	IC50 [µM]
O=C1C[C@@H](c2ccc(O)c(O)c2)Oc2cc(O)cc(O)c21 [eriodictyol]	172 ± 6.81
O=c1c(O)c(-c2ccc(O)c(O)c2)oc2cc(O)ccc12 [fisetin]	79.4 ± 6.03
O=C1c2c(O)cc(O)cc2OC(c2ccc(O)c(O)c2)C1O (centres unmarked) [taxifolin]	391 ± 14.9

same assay, conditions: read-out: IC50 HaCaT, compounds, average ± SD, * single experiment

Compound	IC50 [µM]
N.N.[Cl][Pt][Cl] [cisplatin, reference compound]	2.86 ± 0.21

system: prostate carcinoma DU 145; test: MTT cytotoxicity assay, 72 h; assay type: cell-based, human; settings: 400 µM, 72 h

Compound	cytotoxic effect at 400 µM, DU 145
O=c1c(O)c(-c2ccc(O)c(O)c2)oc2cc(O)ccc12 [fisetin]	did not exhibit any cytotoxicity
O=C1c2c(O)cc(O)cc2OC(c2ccc(O)c(O)c2)C1O (centres unmarked) [taxifolin]	did not show cytotoxic effects

same assay, conditions: Homo sapiens, DU-145, 72 h, read-out: IC50 DU 145

Compound	IC50 [µM]
O=C1C[C@@H](c2ccc(O)c(O)c2)Oc2cc(O)cc(O)c21 [eriodictyol]	388 ± 16
O=c1c(O)c(-c2ccc(O)c(O)c2)oc2cc(O)ccc12 [fisetin]	> 400
O=C1c2c(O)cc(O)cc2OC(c2ccc(O)c(O)c2)C1O (centres unmarked) [taxifolin]	> 400

same assay, conditions: from average IC50 values

Compound	Selectivity index IC50 for HaCaT/IC50 for DU 145	Selectivity index IC50 for MRC-5/IC50 for DU 145
O=C1C[C@@H](c2ccc(O)c(O)c2)Oc2cc(O)cc(O)c21 [eriodictyol]	0.44	0.40
O=c1c(O)c(-c2ccc(O)c(O)c2)oc2cc(O)ccc12 [fisetin]	< 0.20	–
O=C1c2c(O)cc(O)cc2OC(c2ccc(O)c(O)c2)C1O (centres unmarked) [taxifolin]	< 0.98	–

same assay, conditions: read-out: IC50 DU 145; compounds; 72 h; average ± SD; ** two experiments

Compound	IC50 [µM]
N.N.[Cl][Pt][Cl] [cisplatin, reference compound]	6.72 ± 0.05

system: chronic myelogenous leukemia K562; test: MTT cytotoxicity assay, 72 h; assay type: cell-based, human; settings: Homo sapiens, K562, 72 h, read-out: IC50 K562

Compound	IC50 [µM]
O=C1C[C@@H](c2ccc(O)c(O)c2)Oc2cc(O)cc(O)c21 [eriodictyol]	126 ± 8.11
O=c1c(O)c(-c2ccc(O)c(O)c2)oc2cc(O)ccc12 [fisetin]	90.8 ± 2.73
O=C1c2c(O)cc(O)cc2OC(c2ccc(O)c(O)c2)C1O (centres unmarked) [taxifolin]	167 ± 10.9

same assay, conditions: from average IC50 values

Compound	Selectivity index IC50 for HaCaT/IC50 for K562	Selectivity index IC50 for MRC-5/IC50 for K562
O=C1C[C@@H](c2ccc(O)c(O)c2)Oc2cc(O)cc(O)c21 [eriodictyol]	1.37	1.23
O=c1c(O)c(-c2ccc(O)c(O)c2)oc2cc(O)ccc12 [fisetin]	0.88	> 4.41
O=C1c2c(O)cc(O)cc2OC(c2ccc(O)c(O)c2)C1O (centres unmarked) [taxifolin]	2.35	> 2.40

system: cervical adenocarcinoma HeLa; test: MTT cytotoxicity assay, 72 h; assay type: cell-based, human; settings: from average IC50 values

Compound	Selectivity index IC50 for HaCaT/IC50 for HeLa	Selectivity index IC50 for MRC-5/IC50 for HeLa
O=C1C[C@@H](c2ccc(O)c(O)c2)Oc2cc(O)cc(O)c21 [eriodictyol]	1.17	1.05
O=c1c(O)c(-c2ccc(O)c(O)c2)oc2cc(O)ccc12 [fisetin]	1.31	> 6.61
O=C1c2c(O)cc(O)cc2OC(c2ccc(O)c(O)c2)C1O (centres unmarked) [taxifolin]	2.01	> 2.04

system: lung fibroblasts MRC-5; test: MTT cytotoxicity assay, 72 h, normal cells; assay type: cell-based, human; settings: 400 µM, 72 h

Compound	cytotoxic effect at 400 µM, MRC-5
O=c1c(O)c(-c2ccc(O)c(O)c2)oc2cc(O)ccc12 [fisetin]	no cytotoxic effects
O=C1c2c(O)cc(O)cc2OC(c2ccc(O)c(O)c2)C1O (centres unmarked) [taxifolin]	did not show cytotoxic effects

same assay, conditions: Homo sapiens, MRC5, 72 h, read-out: IC50 MRC-5

Compound	IC50 [µM]
O=C1C[C@@H](c2ccc(O)c(O)c2)Oc2cc(O)cc(O)c21 [eriodictyol]	155 ± 7.48
O=c1c(O)c(-c2ccc(O)c(O)c2)oc2cc(O)ccc12 [fisetin]	> 400
O=C1c2c(O)cc(O)cc2OC(c2ccc(O)c(O)c2)C1O (centres unmarked) [taxifolin]	> 400

same assay, conditions: read-out: IC50 MRC-5; compounds; 72 h; average ± SD; ** two experiments

Compound	IC50 [µM]
N.N.[Cl][Pt][Cl] [cisplatin, reference compound]	6.37 ± 0.2
